This is an account of results in US20240277631A1, “SMALL MOLECULE DRUG (ELP-004) TO PREVENT BONE LESIONS CAUSED BY MULTIPLE MYELOMA” (West Virginia University Board of Governors on behalf of …, priority 2023, published 2024).

Data set [1] has as its system CYP isoforms CYP1A2, CYP2B6, CYP2C8, CYP2C9, CYP2C19, CYP2D6, and CYP3A4. As to the kind of experiment: reversible CYP inhibition in human liver microsomes, summary over all isoforms. To be noted: any CYP, concentration range 0.02-25 μM. Type of data set: in vitro ADME. The protocol:
(§1) Depicted in table 2 is cytochrome P450 phenotyping and inhibition by ELP-004. The stability of ELP-004 was tested in the presence of recombinant enzymes CYP1A2, CYP2B6, CYP2C8, CYP2C9, CYP2C19, CYP2D6, and CYP3A4. ELP-004 (1 μM) was incubated with recombinant enzymes and NADPH. The amount of ELP-004 remaining at each timepoint was analyzed by LC-MS/MS. Incubations in control recombinant enzymes were also performed to assess non-enzymatic mediated stability. The intrinsic clearance of ELP-004 was determined. […] A decrease in the formation of the metabolite compared to vehicle control is used to calculate an IC50 value. Metabolite peak area ratio response as a percentage of vehicle control is plotted against the test compound concentration.
On the technique in general: Liver microsomes are a subcellular fraction often used to study metabolism.

Another data set addresses CYP2C19 (Homo sapiens, UniProt P33261). Briefly: stability with recombinant CYP2C19. It counts as in vitro ADME. Conditions: recombinant CYP2C19, intrinsic clearance, read-out: Recombinant CYP CLINT. The method, then: as §1
In a further data set the test system is U266 cells. As to the kind of experiment: U266 cell viability (Axenin V method) and cell counts. It counts as cell-based, human. The protocol:
The U266 cells were incubated in the presence of the noted concentrations of ELP-004, and the viability of the cells was determined at the indicated times using the Axenin V method.
Initial treatment with N-methyl dichloropropionaniline (N-MeDCPA, ELP-004) was examined. The N-MeDCPA was designed and synthesized and tested in laboratory experiments. A treatment scheme with plated cells was devised using N-MeDCPA as compared to a DMSO vehicle only, along with 100 μM and 200 μM dosages on U266 cell samples. U266 is a B lymphocyte isolated from the peripheral blood of a patient with myeloma and is commonly used in immune system disorder research and immunology research. The cells were allowed to incubate then counted under a 10× lens.
As may be seen in FIG. 1, the growth curve of cell samples as treated with the varying concentrations versus a DMSO vehicle can be observed. The number of cells per milliliter was calculated after examination and counting under the lens.
The effect of ELP-004 (i.e. N-MeDCPA) on […] (a myeloma cell line) proliferation is described above.

The target of another data set is T1, CYP1A2 (Homo sapiens, UniProt P05177).
T1 sequence (P05177 1-516): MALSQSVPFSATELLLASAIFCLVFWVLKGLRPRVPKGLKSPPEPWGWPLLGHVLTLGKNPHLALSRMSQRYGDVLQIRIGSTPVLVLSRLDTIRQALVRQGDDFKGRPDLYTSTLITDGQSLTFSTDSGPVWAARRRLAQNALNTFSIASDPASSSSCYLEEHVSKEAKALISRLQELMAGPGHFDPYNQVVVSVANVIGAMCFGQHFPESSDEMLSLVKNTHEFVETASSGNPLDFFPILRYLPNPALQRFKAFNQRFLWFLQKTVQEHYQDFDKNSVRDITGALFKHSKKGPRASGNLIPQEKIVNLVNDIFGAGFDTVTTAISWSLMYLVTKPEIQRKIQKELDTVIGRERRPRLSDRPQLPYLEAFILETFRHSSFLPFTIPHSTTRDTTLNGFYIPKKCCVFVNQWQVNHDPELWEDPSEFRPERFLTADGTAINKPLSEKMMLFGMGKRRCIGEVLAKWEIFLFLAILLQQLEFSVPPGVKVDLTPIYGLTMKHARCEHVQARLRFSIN
As to the kind of experiment: stability with recombinant CYP1A2. Type of data set: in vitro ADME. To be noted: recombinant CYP1A2, intrinsic clearance, read-out: Recombinant CYP CLINT. The method, then:
as §1

The next data set is described as follows: water solubility. It counts as physicochemical. The text has this:
Those persons of ordinary skill in the art will understand that ELP-004 may be solubilized in ethanol and then diluted in sterile saline. These methods include wherein the route of administration may be, for example but not limited to, the intravenous, intramuscular, or subcutaneous routes, or via the oral route of administration.

Data set [2] has as its system Murine BMSMCs. As to the kind of experiment: LTB4-induced osteoclast fusion (TRAP, multinucleation, marker mRNA). Type of data set: cell-based. To be noted: RANKL/LTB4. The method, then:
FIGS. 6A-C show ELP-004 blocking LTB4-induced Osteoclast Fusion. (A-C) Murine BMSMCs were grown for up to 21 days in media supplemented with 50 ng/ml m-CSF, 1 ng/ml RANKL and 50 nM LTB4. Each experiment was repeated a minimum of three times. Cells were fixed and stained for Tartrate Resistant Acid Phosphatase (TRAP) activity at days 1, 7, 14 and 21. In schematic A, the number of TRAP positive osteoclast-like cells (out of 100 cells) were counted for each time point; TRAP intensity was also calculated. In schematic B, at each time point, the number of nuclei for each cell was counted and the average number of nuclei per cell for 100 cells is shown. In schematic C, mRNA expression of osteoclast markers such as TRAP5, VATPASE A3, VATPASE D2 and Calcitonin Receptor (CALCR) were measured at days 7 and 14 for both control and treated cells by RT-PCR. […] The expression patterns of osteoclast markers was unaffected by ELP-004, indicating selective inhibition of specific features of osteoclastogenesis.

Data set [3] concerns Murine BMSMCs. Briefly: TNFα-induced osteoclast fusion (TRAP, multinucleation, marker mRNA). It counts as cell-based. Conditions: RANKL/TNFα. The method, then: (A_C) Murine BMSMCs were grown for up to 21 days in media supplemented with 50 ng/ml m-CSF, […] RANKL and 2 ng/ml TNFα. Each experiment was repeated a minimum of three times. Cells were fixed and stained for Tartrate Resistant Acid Phosphatase (TRAP)_activity at days 1, 7, 14 and 21. In schematic A, the number of TRAP positive osteoclast-like cells (out of 100 cells) were counted for each time point; TRAP intensity was also calculated. In schematic B, at each time point the number of nuclei for each cell was counted and the average number of nuclei per cell for 100 cells is shown. […] The expression patterns of osteoclast markers was unaffected by ELP-004, indicating selective inhibition of specific features of osteoclastogenesis.

Data set [4] relates to osteoclasts differentiated from Murine BMSMCs. As to the kind of experiment: matrix resorption (pit formation) on Osteo-Assay surface plates. Conditions: irrespective of conditions, days 7, 14, 21. It counts as cell-based. The protocol: Murine BMSMCs were differentiated to form osteoclasts on Osteo-Assay surface plates. The sizes of pits formed by the resorptive activity of osteoclasts differentiated under the three conditions were analyzed at days 7, 14, and 21. Average pit sizes of 10-30 pits are shown.

In the next data set the target is dopamine transporter (Homo sapiens, UniProt Q01959). Briefly: dopamine transport. The text has this:
ELP-004 has been evaluated for its ability to cross the blood brain barrier. […] Other medications, such as but not limited to bupropion, are known to cause problems due to dopamine transporter binding.

For orientation: IC50 means the concentration needed to halve the response being measured.

Each structure is given as a SMILES string.

Sequence of dopamine transporter (Q01959 whole entry): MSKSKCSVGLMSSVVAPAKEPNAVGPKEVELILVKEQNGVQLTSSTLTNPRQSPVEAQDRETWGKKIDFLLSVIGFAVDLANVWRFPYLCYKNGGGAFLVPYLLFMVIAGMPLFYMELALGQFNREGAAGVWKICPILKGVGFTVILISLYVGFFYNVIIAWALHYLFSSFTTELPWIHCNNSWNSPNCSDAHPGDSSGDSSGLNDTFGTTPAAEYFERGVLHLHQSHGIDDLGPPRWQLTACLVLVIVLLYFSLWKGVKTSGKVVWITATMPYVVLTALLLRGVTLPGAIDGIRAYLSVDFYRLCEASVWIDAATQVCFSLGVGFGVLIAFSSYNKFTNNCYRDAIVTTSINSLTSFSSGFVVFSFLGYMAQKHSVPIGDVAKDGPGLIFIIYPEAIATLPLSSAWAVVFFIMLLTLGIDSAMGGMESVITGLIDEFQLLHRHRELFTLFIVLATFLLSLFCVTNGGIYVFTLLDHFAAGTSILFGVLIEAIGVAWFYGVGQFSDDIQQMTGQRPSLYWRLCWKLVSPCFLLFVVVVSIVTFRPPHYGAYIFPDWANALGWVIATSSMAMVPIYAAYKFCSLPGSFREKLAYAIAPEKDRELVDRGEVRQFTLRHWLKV
Sequence of CYP2C19 (P33261 whole entry): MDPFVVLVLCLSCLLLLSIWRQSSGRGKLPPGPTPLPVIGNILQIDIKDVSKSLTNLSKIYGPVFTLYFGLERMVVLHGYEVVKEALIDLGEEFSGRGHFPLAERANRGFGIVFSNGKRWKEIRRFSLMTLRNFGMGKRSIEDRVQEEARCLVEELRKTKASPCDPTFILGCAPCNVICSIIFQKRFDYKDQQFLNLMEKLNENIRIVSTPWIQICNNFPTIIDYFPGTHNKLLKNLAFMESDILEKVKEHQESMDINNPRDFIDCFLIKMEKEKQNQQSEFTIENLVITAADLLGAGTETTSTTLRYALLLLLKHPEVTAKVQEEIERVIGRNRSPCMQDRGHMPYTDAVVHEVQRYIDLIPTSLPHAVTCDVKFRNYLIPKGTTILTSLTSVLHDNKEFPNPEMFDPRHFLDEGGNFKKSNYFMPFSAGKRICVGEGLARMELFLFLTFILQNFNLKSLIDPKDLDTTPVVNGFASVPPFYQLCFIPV

On to `CCC(=O)N(C)c1ccc(Cl)c(Cl)c1` [ELP-004, N-(3,4-dichlorophenyl)-N-methylpropanamide], for which the “reversible inhibition of CYP isoforms” value in data set [1] was “did not inhibit”. The figures for the microsomal CLint at 1 μM at CYP2C19 and on CYP1A2 were 0.279 µL/min/mg and 2.85 µL/min/mg, respectively. Also, in the data set with U266 cells (Homo sapiens, U-266, U266 cells, viability by Axenin V method, calculated using two methods), the IC50 is 154 µM. In the data set with U266 cells (U66 (U266) myeloma cell line), the myeloma cell proliferation entry is on record as “inhibits myeloma cell proliferation”. The water solubility entry in the data set “water solubility” is listed as “not water soluble”. The TRAP activity result with Murine BMSMCs [2] and in the data set on Murine BMSMCs [3] was “completed abrogated” each time. Further, the “expression patterns of osteoclast markers” value in the data set with Murine BMSMCs [2] and in the data set with Murine BMSMCs [3] was “unaffected” throughout. Also, the multinucleation entry in the data set on Murine BMSMCs [2] and in the data set on Murine BMSMCs [3] was “severely attenuated” throughout. Besides, the “matrix resorption activity of osteoclasts” value in data set [4] is “No resorption was observed”. Moreover, the “problems with dopamine transport” value on dopamine transporter is on record as “does not cause problems with dopamine transport”.
